Data: US8034791B2, “Activation of Egr-1 promoter by DNA damaging chemotherapeutics” (The University of Chicago, priority 2001, dated 2011)
Counter-ions that a name gives are not always drawn.

Columns and labels:
PROb cells [1] = assay: Preliminary in vitro TNF-α induction, PROb cells; assay type: cell-based, rat; conditions: PROb cells treated with Ad.TNF (100 MOI), 24 hrs; cisplatin 250 μM, doxorubicin 3 μM, 5-FU 20 mM, paclitaxel 14 μM
Experimental: (§1) In vitro measurement of TNF-α protein. PC-3 and PROb cells were plated in 96-well plates, grown overnight, and infected with Ad.Egr.TNF at 100 multiplicities of infection, incubated for three hrs, and were then treated with cisplatin (250 μM), doxorubicin (3 μM), 5-FU (20 mM) or paclitaxel (14 μM). Supernatants were harvested 24 hrs later and human TNF-α production was quantified by ELISA. Experiments were performed in quintuplicate.

PROb xenografts [2] = assay: Xenograft regrowth study, PROb; assay type: in vivo, athymic nude mice; conditions: day 27, among control, doxorubicin alone and vector alone
Experimental: Xenograft regrowth studies. […] On days 0 and 3, mice received IT injection of 10 μl of either 5×10^9 p.u. […] IP injections of doxorubicin or NS (2 mg/kg) were administered daily from days 0 through 8. Xenografts were measured twice weekly and tumor volume was calculated according to the formula (length×width×thickness)/2. Fractional tumor volumes (V/V0 where V0=volume on day 0) were calculated and plotted.

PC-3 xenografts [3] = assay: Xenograft regrowth study, PC-3; assay type: in vivo, athymic nude mice
Experimental: Xenograft regrowth studies. Treatment was initiated on day 0 at which time mice were assigned to one of 4 treatment groups: control, doxorubicin, Ad.Egr-TNF.11D, and combination of Ad.Egr-TNF.11D and doxorubicin. On days 0 and 3, mice received IT injection of 10 μl of either 5×10^9 p.u. Ad.Egr-TNF.11D, or 10 μl of viral formulation buffer. IP injections of doxorubicin or NS (2 mg/kg) were administered daily from days 0 through 8. Xenografts were measured twice weekly and tumor volume was calculated according to the formula (length×width×thickness)/2. Fractional tumor volumes (V/V0 where V0=volume on day 0) were calculated and plotted.

PC-3 xenografts [4] = assay: Analysis of microvessel density (anti-CD31), PC-3 xenografts; assay type: in vivo, athymic nude mice; conditions: day 27, anti-CD31
Experimental: Two or three xenografts from each treatment group in the PC-3 regrowth study above were collected and fixed in 10% neutral buffered formalin, embedded in paraffin, cut in 5 μm slices, mounted, baked, cleared in xylene, and rehydrated in decreasing alcohol concentrations (100%-70%) and distilled water. Sections were microwaved in 10 mM citrate buffer at pH 6.0 for 18 min, washed and soaked in 1% hydrogen peroxide/methanol for 20 min prior to blocking with avidin-biotin (Vector Laboratories, Burlingame, Calif.) for 15 min. Slides were incubated with biotin (15 min), washed and blocked with serum-free DAKO protein (DAKO, Carpinteria, Calif.) for 10 min prior to incubation with a 1:50 dilution of goat anti-mouse CD31 antibody (Santa Cruz, Santa Cruz, Calif.) for 60 min at RT. CD-31 staining was visualized on tissue sections following incubation with DAKO biotinylated anti-goat secondary antibody for 30 min and DAB reagent (Vector) for 60 sec. Sections were counterstained with Gill 3 hematoxylin and dehydrated in ethanol (95%-100%) and xylene prior to mounting. All slides were read by an investigator blinded to the treatment groups. Positively stained vessels were counted in 5-10 high power fields (×400) per slide using light microscopy. Blood vessels were identified by endothelial cell staining and by endothelial cells surrounding intraluminal erythrocytes. […]

PROb cells [5] = assay: Chemo-inducibility of Ad.Egr-TNF.11D in vitro, PROb cells; assay type: cell-based, rat; conditions: vector-infected PROb cells, 24 hrs; cisplatin 250 μM, doxorubicin 3 μM, 5-FU 100 mM, gemcitabine 3 mM, paclitaxel 14 μM
Experimental: (§2) PC-3 and PROb cells were plated, infected with Ad.Egr.TNF, and incubated as discussed above. After incubation, 200 μl of CM, with or without chemotherapeutic agents, including cisplatin (250 μM), doxorubicin (3 μM), 5-fluorouracil (100 mM), gemcitabine (3 mM) and paclitaxel (14 μM) were added. Conditioned medium was harvested 24 hrs. later, and TNF-α concentration was measured (Quantikine Human TNF-α ELISA kit, R & D Systems, Minneapolis, Minn.).

PROb cells [6] = assay: Chemo-sensitivity by MTS assay, PROb cells; assay type: cell-based, rat; conditions: Ad.Egr-TNF.11D and chemotherapy 24 hrs
Experimental: (§3) Chemo-sensitivity of PC-3 and PROb cells as determined by MTS assay. PC-3 and PROb cells were plated at a density of 10^5 cells/100 μl medium in 96-well tissue culture plates and incubated overnight. […] After incubation, 200 μl of complete media, with or without chemotherapeutic agents, was added. Chemotherapeutic agents used were at final concentrations of cisplatin at 46 and 460 μM, doxorubicin at 3 and 300 μM, 5-fluorouracil at 2 and 200 mM and paclitaxel at 1.4 and 140 μM. Media was removed 24 hrs later and each well was rinsed with 200 μl of complete media (CM) and aspirated. 100 μl of CM was then added with 20 μl of CellTiter 96® Aqueous One Solution Cell Proliferation Assay solution (Promega, Madison, Wis.), and the cells were allowed to incubate for 1 hr. Absorbance was measured at 490-650 nm.

PROb xenografts [7] = conditions: PROb xenografts, vector + IP agent vs vector alone; cisplatin 9, cyclophosphamide 160, doxorubicin 15, 5-FU 100, gemcitabine 500 mg/kg
Experimental: (§4) Saline or chemotherapeutic agents administered IP on days 1 and 2, including 9 mg/kg cisplatin, 160 mg/kg cyclophosphamide, 15 mg/kg doxorubicin, 100 mg/kg 5-FU and 500 mg/kg gemcitabine. Animals were euthanized, and xenografts were harvested 24 hrs after the second IP injection. Xenografts were snap-frozen in liquid nitrogen and homogenized in RIPA buffer (150 mM NaCl, 10 mM Tris pH 7.5, 5 mM EDTA pH 7.5, 100 mM PMSF, 1 µg/ml leupeptin and 2 μg/ml aprotinin) using a Brinkman Polytron homogenizer (Kinematica AG, Lucerne, Switzerland). After three freeze-thaw lysis cycles, the homogenate was centrifuged at 7800×g in a Sorvall RC-5C SS34 rotor (Kendro Laboratory Products, Newtown, Conn.) for 10 min at 4° C. TNF-α levels in the supernatants were measured by ELISA as described above.

PC-3 cells [8] = assay: Preliminary in vitro TNF-α induction, PC-3 cells; assay type: cell-based, human; conditions: vector treated PC-3 cells (100 MOI), 24 hrs; cisplatin 250 μM, doxorubicin 3 μM, 5-FU 20 mM, paclitaxel 14 μM
Experimental: as §1

PC-3 cells [9] = assay: Chemo-inducibility of Ad.Egr-TNF.11D in vitro, PC-3 cells; conditions: PC-3 cells, doses used in the chemo-induction experiments (3 μM)
Experimental: as §2

PC-3 xenografts [10] = assay type: in vivo, athymic nude mice; conditions: vector + IP agent days 1 and 2, cisplatin 9, cyclophosphamide 160, doxorubicin 15, 5-FU 100, gemcitabine 500 mg/kg
Experimental: as §4

PROb xenografts [11] = assay type: in vivo, nude mice; conditions: IT vector 5×10^9 p.u. + IP agent vs vector plus NS, cisplatin 9, cyclophosphamide 160, doxorubicin 15, 5-FU 100, gemcitabine 500 mg/kg
Experimental: (§5) In vivo measurement of TNF-α protein. PC-3 (1×10^7 cells) or PROb cells (5×10^6) in 100 μl PBS were injected subcutaneously into the right hind limb of nude mice. Tumor-bearing mice received IT Ad.Egr.TNF (5×10^9 p.u. in 10 μl) with 250 μl of complete media with NS or a chemotherapeutic agent, including cisplatin (9 mg/kg), cyclophosphamide (160 mg/kg), doxorubicin (15 mg/kg), 5-fluorouracil (100 mg/kg) and gemcitabine (500 mg/kg). Each mouse IP injections were administered 20 hrs after transfection, and two consecutive IT and IP injections were given. Animals were euthanized, and xenografts were harvested 48 hrs after the second IP injection. Xenografts were snap-frozen in liquid nitrogen and homogenized in RIPA buffer (150 mM NaCl, 10 mM Tris at pH 7.5, 5 mM EDTA at pH 7.5, 100 mM PMSF, 1 μg/ml leupeptin and 2 μg/ml aprotinin). After three freeze-thaw lysis cycles, the homogenate was centrifuged for 10 minutes at 4° C. TNF-α levels in the supernatants were measured as described above.

PC-3 xenografts [12] = assay type: in vivo, nude mice; conditions: IT vector 5×10^9 p.u. + IP agent vs vector and NS, cisplatin 9, cyclophosphamide 160, doxorubicin 15, 5-FU 100 mg/kg
Experimental: as §5

PC-3 cells [13] = assay: Chemo-sensitivity by MTS assay, PC-3 cells; assay type: cell-based, human; conditions: PC-3, Ad.Egr-TNF.11D and chemotherapy 24 hrs
Experimental: as §3

[14] = higher concentration: cisplatin 460 μM, doxorubicin 300 μM, 5-FU 200 mM, taxol 140 μM
[15] = lower concentration: cisplatin 46 μM, doxorubicin 3 μM, 5-FU 2 mM, taxol 1.4 μM

## COc1cccc2c1C(=O)c1c(O)c3c(c(O)c1C2=O)C[C@@](O)(C(=O)CO)C[C@@H]3O[C@H]1C[C@H](N)[C@H](O)[C@H](C)O1 [doxorubicin, doxorubicin hydrochloride]
PROb cells [1]
  increased TNF levels: 7.3 fold
PROb xenografts [2]
  tumor growth delay: no difference in tumor growth delay
PC-3 xenografts [3]; PC-3 xenografts, day 23, doxorubicin 2 mg/kg IP daily
  tumor growth: 3 fold
PC-3 xenografts [3]; xenograft regrowth studies in nude mice
  systemic toxicity, including weight loss and deaths: Systemic toxicity, including weight loss and deaths, was observed
PC-3 xenografts [4]
  number of vessels per high power field: 6.24±0.35
PROb cells [5]
  increase in TNF-α levels: 7.4 fold
PROb cells [6]; [14]
  surviving fraction: 85%
PROb cells [6]; [15]
  surviving fraction: 100%
PROb xenografts [7]
  induction of TNF-α protein: 2.3 fold
PC-3 cells [8]
  increased TNF levels: 14.5 fold
PC-3 cells [9]
  toxicity to cells: toxic at the doses used
PC-3 xenografts [10]
  increase in TNF-α levels: 4.2 fold
PROb xenografts [11]
  increased TNF-α levels: 2.5 fold
PC-3 xenografts [12]
  induced TNF-α: 3.1 fold
PC-3 cells [13]; [14]
  surviving fraction: 30%
PC-3 cells [13]; [15]
  surviving fraction: 90%
